In patent US12152038B2, “Vasopressin receptor antagonists and products and methods related thereto” (Neumora Therapeutics, Inc., priority 2017, dated 2024):

Target: T1, human Arginine Vasopressin Receptor 1b (AVPR1b) (Homo sapiens, UniProt P47901)
T1 construct: expressed in transfected cells; host or cells: CHO (CHO-AVPR1b, kept under G418 selection)
T1 sequence (P47901 1-424): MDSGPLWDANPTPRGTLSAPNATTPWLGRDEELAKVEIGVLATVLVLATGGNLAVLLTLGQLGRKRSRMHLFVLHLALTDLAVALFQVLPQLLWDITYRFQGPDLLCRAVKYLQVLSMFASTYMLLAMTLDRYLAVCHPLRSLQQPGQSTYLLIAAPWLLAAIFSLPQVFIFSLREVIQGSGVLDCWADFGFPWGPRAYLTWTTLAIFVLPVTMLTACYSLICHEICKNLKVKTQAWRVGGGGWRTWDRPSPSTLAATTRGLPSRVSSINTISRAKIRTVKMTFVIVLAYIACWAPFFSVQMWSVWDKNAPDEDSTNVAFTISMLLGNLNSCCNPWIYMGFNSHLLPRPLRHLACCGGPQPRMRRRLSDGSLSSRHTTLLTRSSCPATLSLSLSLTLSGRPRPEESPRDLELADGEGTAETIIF
Assay: Vasopressin V1b receptor antagonist assay (FLIPR calcium, CHO-AVPR1b cells)
Format: cell-based
Experimental: The purpose of the assay was to determine the inhibitory effect of synthesized compounds on the Vasopressin V1b receptor. The assay was performed in Chinese Hamster Ovary (CHO) cells expressing the human Arginine Vasopressin Receptor 1b (AVPR1b). Arginine Vasopressin (AVP) evokes an increase in intracellular calcium in CHO-AVPR1b cells which is measured in a fluorescence assay on the FLIPR^TETRA using calcium sensitive dyes. Test compounds were assessed for their ability to affect the magnitude of the response to AVP, with antagonists showing a concentration-dependent reduction in the AVP-mediated fluorescence.
CHO-AVPR1b cells were maintained in routine culture in T175 Flasks at 37° C., 5% CO2. The growth medium consisted of Ham's F12 media supplemented with 10% v/v fetal bovine serum, 1× non-essential amino acids, and 0.4 mg/ml Geneticin G418.
Cells were harvested from T175 flasks when they were 80-90% confluent by first washing the cell monolayer with PBS and then dissociated using trypsin 0.05%/EDTA (3 mL for a T175 Flask). The flasks were incubated at room temperature until the cells detached. To the cell suspension, 10 ml of growth media was added and the cell density determined using the Vi-Cell automated cell counter. The cells were spun at 1000 rpm for 3 minutes, then the supernatant was carefully removed and discarded. The cell pellet was re-suspended at 6.0e^5 cells/ml in growth media. 25 μL of cells in growth media was dispensed into each well (15,000 cells per well) of a poly-D-lysine coated black, clear bottomed, 384-well plate. The plates were incubated at 37° C., 5% CO2 overnight.
At the start of each assay day, the potency of AVP was assessed and an EC80 concentration determined for subsequent compound profiling. Assays were performed using a two-step addition protocol on the FLIPR^TETRA; first addition of 5 μl of control or test compound at 10× final in assay buffer with 15 min incubation at 37° C., 5% CO2 followed by 10 μl of AVP at 6× final concentration in assay buffer. Changes in fluorescence were monitored for 3 min after both additions on the FLIPR^TETRA using 470-495 nm excitation and 515-575 nm emission wavelengths. The assay buffer consisted of HBSS (+Ca/+Mg) supplemented with 20 mM HEPES, and for the preparation of the AVP agonist only, 0.1% w/v bovine serum albumin. The assay was initiated by the removal of growth media from the cells and replacement with 45 μl of Calcium-6 dye (Molecular Devices) prepared at 1× in assay buffer. Cells were loaded with dye for 60-90 min at 37° C., 5% CO2 before initiation of the FLIPR^TETRA protocol. […] For compound profiling, test compounds were first serially diluted in DMSO (10-point curve, 1:3 dilutions) then diluted 33.3-fold in assay buffer prior to addition to the dye loaded cells on the FLIPR^TETRA. At the end of the incubation period 10 μl of AVP in assay buffer containing 0.1% BSA was added at the previously determined EC80 concentration.
In-plate controls for the assay included a Nelivaptan concentration-response curve as the reference V1b antagonist and an AVP concentration-response curve to confirm the reproducibility of the EC80 used for the compound challenge.

## CC1COc2cc(F)ccc2N1C(=O)N1CC2(C1)CN(c1noc3ccccc13)C2 (single isomer, unassigned) [4-3-B]
  IC50: ≥ 1 µM

## Cc1ccnc(N2CC3(CN(C(=O)N4c5ccc(Cl)cc5OCC4C)C3)C2)n1 (single isomer, unassigned) [20-12-B]
  IC50: ≥ 1 µM

## CC1COc2cc(F)ccc2N1C(=O)N1CC2(C1)CN(c1ccc(F)cn1)C2 (single isomer, unassigned) [12-1-B]
  IC50: ≥ 1 µM

## O=C(N1CC2(C1)CN(c1ccc(F)cn1)C2)N1CCC(O)c2cc(Cl)ccc21 (centres unmarked) [13-1, (6-chloro-4-hydroxy-3,4-dihydroquinolin-1(2H)-yl)(6-(5-fluoropyridin-2-yl)-2,6-diazaspiro[3.3]heptan-2-yl)methanone]
  IC50: ≥ 1 µM

## CC1COc2cc(Cl)ccc2N1C(=O)N1CC2(C1)CN(c1noc3cccnc13)C2 (single isomer, unassigned) [18-3-B]
  IC50: ≥ 1 µM

## COc1ccc2c(c1)OCCN2C(=O)N1CC2(C1)CN(c1ccc(F)cn1)C2 [9-2]
  IC50: ≥ 1 µM

## O=C(N1CC2(C1)CN(c1ccccn1)C2)N1CCc2cc(Cl)ccc21 [1-77]
  IC50: ≥ 1 µM

## CC1COc2cc(Cl)ccc2N1C(=O)N1CC2(C1)CN(c1cccnn1)C2 (single isomer, unassigned) [9-1-B]
  IC50: ≥ 1 µM

## O=C(N1CC2(C1)CN(c1noc3ccccc13)C2)N1CCOc2cc(Cl)ccc21 [4-1, (6-(benzo[d]isoxazol-3-yl)-2,6-diazaspiro[3.3]heptan-2-yl)(7-chloro-2,3-dihydro-4H-benzo[b][1,4]oxazin-4-yl)methanone]
  IC50: ≥ 1 µM

## CC1COc2cc(F)ccc2N1C(=O)N1CC2(C1)CN(c1ncccn1)C2 (centres unmarked) [18-1, (7-fluoro-3-methyl-2,3-dihydro-4H-benzo[b][1,4]oxazin-4-yl)(6-(pyrimidin-2-yl)-2,6-diazaspiro[3.3]heptan-2-yl)methanone]
  IC50: ≥ 1 µM

## CC1COc2cc(Cl)ccc2N1C(=O)N1CC2(C1)CN(c1cc(C#N)ccn1)C2 (centres unmarked) [20-6]
  IC50: ≥ 1 µM

## Cc1cnc(N2CC3(CN(C(=O)N4c5ccc(Cl)cc5OCC4C)C3)C2)cn1 (single isomer, unassigned) [20-5-B]
  IC50: ≥ 1 µM

## CC1COc2cc(Cl)c(F)cc2N1C(=O)N1CC2(C1)CN(c1cccnn1)C2 (centres unmarked) [19-4]
  IC50: ≥ 1 µM

## O=C(N1CC2(C1)CN(c1cccc(F)n1)C2)N1CCc2cc(Cl)ccc21 [1-78]
  IC50: ≥ 1 µM

## CC1COc2cc(F)c(F)cc2N1C(=O)N1CC2(C1)CN(c1ncccn1)C2 (single isomer, unassigned) [19-1-B]
  IC50: ≥ 1 µM

## O=C(N1CC2(C1)CN(c1cnccn1)C2)N1CCOc2cc(Cl)ccc21 [8-3]
  IC50: ≥ 1 µM

## CC1COc2cc(F)c(F)cc2N1C(=O)N1CC2(C1)CN(c1cccnn1)C2 (centres unmarked) [19-3]
  IC50: ≥ 1 µM

## CC1COc2cc(Cl)c(F)cc2N1C(=O)N1CC2(C1)CN(c1cccnc1)C2 (centres unmarked) [19-6]
  IC50: ≥ 1 µM

## O=C(N1CC2(C1)CN(c1cc(F)ccn1)C2)N1CCc2cc(Cl)ccc21 [1-79]
  IC50: ≥ 1 µM

## Cc1cncc(N2CC3(CN(C(=O)N4c5ccc(F)cc5OCC4C)C3)C2)n1 (single isomer, unassigned) [20-2-A]
  IC50: ≥ 1 µM

## O=C(N1CC2(C1)CN(c1ccc(F)cn1)C2)N1CCC(O)c2cc(Cl)ccc21 (single isomer, unassigned) [13-1-A]
  IC50: ≥ 1 µM

## O=C(N1CC2(C1)CN(c1ccccn1)C2)N1CCC(O)c2cc(Cl)ccc21 (single isomer, unassigned) [13-2-B]
  IC50: ≥ 1 µM

## Cc1cncc(N2CC3(CN(C(=O)N4c5ccc(F)cc5OCC4C)C3)C2)n1 (single isomer, unassigned) [20-2-B]
  IC50: ≥ 1 µM

## Cc1nc(N2CC3(CN(C(=O)N4c5ccc(Cl)cc5OCC4C)C3)C2)ncc1F (single isomer, unassigned) [20-7-B]
  IC50: ≥ 1 µM

## COc1ccnc(N2CC3(CN(C(=O)N4c5ccc(Cl)cc5OCC4C)C3)C2)n1 (centres unmarked) [20-9]
  IC50: ≥ 1 µM

## Cc1nccnc1N1CC2(CN(C(=O)N3c4ccc(Cl)cc4OCC3C)C2)C1 (single isomer, unassigned) [20-10-A]
  IC50: ≥ 1 µM

## O=C(N1CC2(C1)CN(c1ccc(F)cn1)C2)N1CCc2cc(Cl)ccc21 [8-11]
  IC50: ≥ 1 µM

## CC1COc2cc(F)ccc2N1C(=O)N1CC2(C1)CN(c1noc3ccccc13)C2 (centres unmarked) [4-3]
  IC50: ≥ 1 µM

## O=C(N1CC2(C1)CN(c1ncc(F)cn1)C2)N1CCOc2cc(Cl)ccc21 [4-2]
  IC50: ≥ 1 µM

## CC1COc2cc(Cl)ccc2N1C(=O)N1CC2(C1)CN(c1cc(C#N)ccn1)C2 (single isomer, unassigned) [20-6-B]
  IC50: ≥ 1 µM

## O=C(N1CC2(C1)CN(c1ccccn1)C2)N1CCC(O)c2cc(Cl)ccc21 (single isomer, unassigned) [13-2-A]
  IC50: ≥ 1 µM

## CC1COc2cc(Cl)ccc2N1C(=O)N1CC2(C1)CN(c1ncccn1)C2 (single isomer, unassigned) [1-83-B, (7-chloro-3-methyl-2,3-dihydro-4H-benzo[b][1,4]oxazin-4-yl)(6-(pyrimidin-2-yl)-2,6-diazaspiro[3.3]heptan-2-yl)methanone]
  IC50: ≥ 1 µM
